Assay results as given in ChEMBL document CHEMBL2375328, “Synthetic oligoureas of metaphenylenediamine mimic host defence peptides in their antimicrobial behaviour” (Bioorg Med Chem Lett, 2013).
Converted amounts (≈) assume the structure as drawn. The source made the active and inactive calls. The rule behind the calls is not given here.

What was measured:
[1] = Induction of dimyristoyl phosphatidylglycerol membrane lysis assessed as calcein leakage at 1 mM by spectrofluorometric analysis relative to control; type: physicochemical; conditions: 1000 µM
Staphylococcus aureus [2] = assay: Antimicrobial activity against Staphylococcus aureus; type: functional
[3] = Induction of dimyristoyl phosphatidylglycerol membrane lysis assessed as calcein leakage by spectrofluorometric analysis; type: physicochemical
[4] = Induction of dimyristoyl phosphatidylglycerol membrane lysis assessed as calcein leakage at 250 uM to 1 mM by spectrofluorometric analysis; type: physicochemical
[5] = Destabilization of dimyristoyl phosphatidylethanolamine membrane; type: physicochemical
[6] = Induction of dimyristoyl phosphatidylethanolamine membrane lysis assessed as calcein leakage at 1 mM by spectrofluorometric analysis; type: physicochemical; conditions: 1000 µM
[7] = Induction of dimyristoyl phosphatidylethanolamine membrane lysis assessed as calcein leakage at 250 to 500 uM by spectrofluorometric analysis; type: physicochemical
Escherichia coli [8] = assay: Antimicrobial activity against Escherichia coli; type: functional
Escherichia coli [9] = assay: Antimicrobial activity against Escherichia coli up to 2 mM; type: functional, organism-based
Staphylococcus aureus [10] = assay: Antimicrobial activity against Staphylococcus aureus up to 2 mM; type: functional, organism-based
[11] = Destabilization of dimyristoyl phosphatidylglycerol membrane; type: physicochemical

In the case of CC(C)c1ccccc1N(C)C(=O)N(C)c1cccc(N(C)C(=O)N(C)c2cccc(N(C)C(=O)N(C)c3cccc(N(C)C(=O)N(C)c4ccccc4C(C)C)c3)c2)c1, the Activity [1] is reported as 61%, the MIC (Staphylococcus aureus [2]) is reported as 1000 µM (≈ 811 µg/mL) and the Activity [3] is reported as “Dose-dependent effect”. For the same compound, the Activity [4] was “Active”, the Activity [5] was “Active” and the Activity [6] was “Active”. For the same compound, the Activity [7] was “Not Active” and the MIC (Escherichia coli [8]) was 1000 µM (≈ 811 µg/mL).
In the case of CC(C)c1ccccc1N(C)C(=O)N(C)c1ccccc1C(C)C, the Activity (Escherichia coli [9]) is reported as “inactive”, the Activity (Staphylococcus aureus [10]) is reported as “inactive” and the Activity [3] is reported as “Dose-dependent effect”. The Activity [4] was “Active”, the Activity [5] was “Not Active” and the Activity [6] was “Active”. For the same compound, the Activity [7] was “Not Active” and the Activity [11] was “Active”.
In the case of CC(C)c1ccccc1N(C)C(=O)N(C)c1cccc(N(C)C(=O)N(C)c2cccc(N(C)C(=O)N(C)c3cccc(N(C)C(=O)N(C)c4cccc(N(C)C(=O)N(C)c5cccc(N(C)C(=O)N(C)c6cccc(N(C)C(=O)N(C)c7ccccc7C(C)C)c6)c5)c4)c3)c2)c1, the Activity [1] is reported as 69%, the MIC (Staphylococcus aureus [2]) is reported as 1000 µM (≈ 1300 µg/mL) and the Activity [3] is reported as “Dose-dependent effect”. The Activity [4] was “Active”, the Activity [5] was “Active” and the Activity [6] was “Active”. For the same compound, the Activity [7] was “Not Active” and the MIC (Escherichia coli [8]) was 1000 µM (≈ 1300 µg/mL).
